# Reference: patent US20080119530A1, “Method for treatment and prevention of ultraviolet light induced skin pathologies” (priority 2006, published 2008)
# What was measured:
# mice = test: Skin-fold thickness as a measure of UV-induced edema; assay type: in vivo, mouse
# Description: Adult female CD-1 mice were maintained in our animal facility and provided with Purina lab chow (Nestlé Purina PetCare, St. Louis, Mo.) and water ad libitum. The dorsal skin was clipped one day before treatment and shaved with a Remington Microscreen shaver (Wahl, Sterling, II) on the day of treatment. […] UVB TL 40W/12 RS bulbs (Philips, Somerset, N.J.) were used that emitted approximately 30% UV-A, 70% UV-B and <1% UV-C, with a total output of 470 μW/cm^2, as measured with radiometric photodetector probes (Newport, Irvine, Calif.). Skin-fold thickness was measured using calipers to lightly pinch the dorsal skin. All animal procedures were approved by our Institutional Animal Care and Use Committee.
# [1] = tested on: proliferating cell nuclear antigen (PCNA); test: PCNA expression in skin; assay type: in vivo, mouse; conditions: sham-irradiated skin and UV-exposed skin
# Method: It has been discovered that Erbb2 modulates the expression of genes important in both proliferation and apoptosis following UV exposure in vivo (Example 9). Accordingly, the influence of Erbb2 on both apoptosis and cell proliferation was assessed in order to determine the mechanisms of Erbb2's effect on hyperplasia in the skin after UV irradiation. Erbb2 suppresses UV-induced apoptosis in vitro, although the effect was slight (32). The percentage of TUNEL-positive basal cells was increased at 24 h after UV in vehicle-treated skin, consistent with previous observations in this animal model (13). […] Erbb2 reportedly suppresses keratinocyte differentiation (11), a process leading to keratinocyte death that is mechanistically and morphologically distinct from apoptosis. […] Mean proliferating cell nuclear antigen (PCNA) expression, a marker of cell proliferation, was less in Erbb2 inhibitor treated sham-irradiated skin and in UV-exposed skin when compared to the vehicle-treated controls.
# skin = test: Cell cycle analysis of skin sections by flow cytometry; assay type: in vivo, mouse; conditions: inhibition prior to UV irradiation
# Method: Flow cytometry. […] sections from paraffin embedded blocks were dewaxed with xylene, rehydrated and digested in PBS containing 0.5% pepsin (Sigma, St. Louis, Mo.). The nuclei were isolated by filtration and suspended in Vindelov's (56) solution reagent (3.5 mM tris base, pH 7.6, 10 mM NaCl, 10 μg/ml Ribonuclease A, 75 μg/ml PI, 1.0 μl/ml IPEGAL; (71)). At least 10,000 events from each sample were analyzed for flow cytometry on a FACSCalibur flow cytometer (Becton Dickinson, Franklin Lakes, N.J.). Data were acquired in the FL2 channel with a […] filter. Fluorescence signals were pulse processed and single cells identified using a FL2W versus FL2A plot. A histogram of FL2A was plotted for single cells and cell cycle distributions determined using ModFit LT 3.1 software (Verity Software House, Topsham, Me.).
# Cell cycle. […] For in vitro analysis, keratinocytes were resuspended, fixed in 70% ethanol, resuspended in Vindelov's solution (3.5 mM Tris base, pH 7.6, 10 mM NaCl, 10 μg/ml Ribonuclease A, 75 μg/ml propidium iodide, 1.01l/ml IPEGAL), and analyzed on a FACSCalibur flow cytometer (Becton Dickinson, Franklin Lakes, N.J.). Cell cycle distributions were determined using ModFit LT 3.1 software (Verity Software House, Topsham, Me.). […]
# [2] = tested on: p38 kinase, ERK1/2 and JNK1/2; test: MAPK activity in keratinocytes; assay type: cell-based, mouse; conditions: after sham UV
# Description: Inactivation of Cdc25a can occur through activation of a member of the p38 MAPK signaling pathway, which is also activated by Erbb2, but this regulation of Cdc25a remains controversial (24). […] Other mechanisms for the inactivation of Cdc25a, including sequestration in the cytoplasm and phosphorylation by p38 kinase following UV exposure or osmotic shock, have been reported (25).
# keratinocytes = test: Apoptosis in keratinocytes (ssDNA Apoptosis ELISA); assay type: cell-based, mouse
# Description: Cell culture. […] Keratinocytes were transfected with Erbb2-targeted siRNA (32), Stealth RNAi Negative Control LO GC (Invitrogen, Carlsbad, Calif.), Cy3-conjugated Label IT RNAi Delivery Control (Mirus, Madison, Wis.) or sham transfection with TransIT-siQUEST Transfection Reagent (Mirus, Madison, Wis.). Plasmids with Cdc25a (Hassepass et al. 2003a) and EGFP (enhanced green fluorescent protein) cDNA were cotransfected with Lipofectamine Transfection Reagent (Invitrogen, Carlsbad, Calif.). Transfection efficiency was quantified by determining the proportion of the cells that incorporated the fluorescent Cy3-conjugated siRNA or GFP one day post-transfection. Keratinocytes homozygous for the Erbb2 loxP mutation were infected with Cre recombinase-expressing or empty adenoviral vectors in polybrene (Sigma).
# Proliferation and apoptosis assays. Proliferation, survival and apoptosis were quantified in three replicate experiments. BrdU uptake was measured by a chemiluminescenit BrdU Cell Proliferation ELISA (Roche, Germany). Survival was quantified using 4-methylumbelliferyl heptanoate (MUH, Sigma, St. Louis, Mo.) degradation product fluorescence (ex: 360 nm, em:465 nm) as a marker for cell viability based on the method by Dotsika et al.^27 Cells were incubated in 100 μg/ml MUH in PBS for 30 minutes at 37° C. MUH fluorescence from wells lacking cells was subtracted from all samples. Apoptosis was measured using an ssDNA Apoptosis ELISA kit (Chemicon, Temecula, Calif.).
# To investigate the role of Erbb2 in apoptosis following UV exposure, keratinocyte survival was measured in AG825-treated or Erbb2 siRNA-transfected cells and controls. As expected, apoptosis increased in all groups after UV exposure, as detected by ssDNA quantification.
# [3] = tested on: platelet-derived growth factor receptor kinase
structure (smiles),measurement,setting,value
COc1cc(/C=C(\C#N)C(N)=O)cc(CSc2nc3ccccc3s2)c1O [AG825],suppression of UV-induced edema (skin-fold thickness),mice; 4 d after UV exposure,33%
same,suppression of UV-induced edema (skin-fold thickness),mice; 5 d after UV exposure,37%
same,suppression of UV-induced edema (skin-fold thickness),mice; 6 d after UV exposure,64%
same,mean PCNA expression vs vehicle-treated controls,[1],less
same,S-phase cells in skin,skin,increased
same,"p38 kinase, ERK1/2 and JNK1/2 activity",[2],decrease
same,"ssDNA (apoptosis), compared with DMSO-treated keratinocytes",keratinocytes; between 6 and 12 h post-UV,similarly increased
same,apoptosis compared to DMSO-treated cells,keratinocytes; by 24 h after UV exposure,significantly increased
same,apoptosis after UV in vitro,keratinocytes; extent varies with the assay,small increase
same,fold higher IC50 for platelet-derived growth factor receptor kinase than for Erbb2,[3],more than 100 fold
